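Tested at 5 concentrations; 48 h exposure; 96-well plates; endpoints linearly interpolated, else capped at highest concentration. Abbreviation: GI50, concentration required for 50% inhibition of growth.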 Active and inactive are the calls of the source. No stated cut-off is given here; in the data, active = GI50 up to about 1.1 µM and inactive = higher.
Experiments:
Test in all cases: NCI tumour cell line growth inhibition, 48 h
COLO 205 = test system: COLO 205
CCRF-CEM = test system: CCRF-CEM
UACC-257 = test system: UACC-257
CAKI-1 = test system: CAKI-1
SK-OV-3 = test system: SK-OV-3
SNB-19 = test system: SNB-19
LOX IMVI = test system: LOX IMVI
NCI-H460 = test system: NCI-H460
M14 = test system: M14
SW-620 = test system: SW-620
SF-295 = test system: SF-295
HOP-92 = test system: HOP-92
NCI-H522 = test system: NCI-H522
Hs-578T = test system: Hs-578T
SNB-75 = test system: SNB-75
UO-31 = test system: UO-31
NCI-H23 = test system: NCI-H23
T47D = test system: T47D
HCT-116 = test system: HCT-116
MDA-N = test system: MDA-N

Measured: GI50

C/C(=N\NC(=S)N1CCN(C)CC1)c1nc2cccnc2[nH]1
inactive: COLO 205 > 100 µM | CCRF-CEM > 100 µM | UACC-257 > 100 µM | CAKI-1 > 100 µM | SK-OV-3 > 100 µM | SNB-19 > 100 µM | LOX IMVI > 100 µM | NCI-H460 > 100 µM | M14 > 100 µM | SW-620 > 100 µM | SF-295 > 100 µM | HOP-92 > 100 µM | NCI-H522 > 100 µM | Hs-578T > 100 µM | SNB-75 > 100 µM | UO-31 32 µM | NCI-H23 > 100 µM | T47D 52.1 µM

O=C(Nc1ccccc1C(=O)O)C(=Cc1ccccc1O)NC(=O)c1ccccc1
inactive: COLO 205 > 100 µM | CCRF-CEM > 100 µM | UACC-257 > 100 µM | CAKI-1 > 100 µM | SK-OV-3 > 100 µM | SNB-19 > 100 µM | LOX IMVI 58.9 µM | NCI-H460 > 100 µM | M14 > 100 µM | SW-620 > 100 µM | SF-295 > 100 µM | HCT-116 > 100 µM | HOP-92 > 100 µM | NCI-H522 > 100 µM | Hs-578T > 100 µM | SNB-75 > 100 µM | UO-31 > 100 µM | NCI-H23 > 100 µM | T47D 49.1 µM

COc1ccc(-[n+]2nc(S(=O)(=O)O)c(/C=C/c3ccc(N(C)C)cc3)cc2C#N)cc1
inactive: COLO 205 > 100 µM | CCRF-CEM > 100 µM | UACC-257 > 100 µM | CAKI-1 > 100 µM | SK-OV-3 > 100 µM | SNB-19 > 100 µM | LOX IMVI > 100 µM | M14 > 100 µM | SW-620 > 100 µM | SF-295 > 100 µM | HCT-116 > 100 µM | HOP-92 > 100 µM | NCI-H522 > 100 µM | Hs-578T > 100 µM | SNB-75 > 100 µM | UO-31 > 100 µM | NCI-H23 > 100 µM | T47D > 100 µM

CC(C)(C)c1ccc(OCCOc2ccc(C(C)(C)C)cc2N)c(N)c1
inactive: COLO 205 > 100 µM | CCRF-CEM 22.9 µM | UACC-257 > 100 µM | CAKI-1 > 100 µM | SK-OV-3 > 100 µM | SNB-19 > 100 µM | LOX IMVI 27.8 µM | NCI-H460 > 100 µM | M14 > 100 µM | SW-620 > 100 µM | SF-295 > 100 µM | HCT-116 > 100 µM | HOP-92 17.4 µM | NCI-H522 11.4 µM | Hs-578T 24.2 µM | SNB-75 47.8 µM | UO-31 > 100 µM | NCI-H23 27.6 µM | T47D 25.6 µM

C=C1CCCC2[C@](C)(CC3=C(Cl)C(=O)C=C(OC)C3=O)C(C)CC[C@]12C (stereo partly specified)
inactive: COLO 205 3.37 µM | CCRF-CEM 1.45 µM | UACC-257 5.89 µM | CAKI-1 3.39 µM | SK-OV-3 20.7 µM | SNB-19 7.21 µM | LOX IMVI 1.38 µM | NCI-H460 8.63 µM | M14 4.33 µM | SW-620 3.02 µM | SF-295 7.41 µM | HCT-116 1.75 µM | HOP-92 6.12 µM | NCI-H522 1.16 µM | Hs-578T 8.71 µM | UO-31 1.76 µM | MDA-N 6.95 µM | NCI-H23 4.49 µM

O=C1c2ccccc2-c2c1c(-c1cccc(Br)c1)nc1ccc3ccccc3c21
inactive: COLO 205 > 100 µM | CCRF-CEM > 100 µM | UACC-257 > 100 µM | CAKI-1 > 100 µM | SK-OV-3 > 100 µM | SNB-19 > 100 µM | LOX IMVI > 100 µM | NCI-H460 > 100 µM | M14 > 100 µM | SW-620 > 100 µM | SF-295 > 100 µM | HCT-116 > 100 µM | Hs-578T 46.9 µM | SNB-75 > 100 µM | UO-31 > 100 µM | MDA-N > 100 µM | NCI-H23 > 100 µM | T47D > 100 µM

c1ccc(CCNc2ccccn2)nc1
inactive: COLO 205 > 100 µM | CCRF-CEM > 100 µM | UACC-257 > 100 µM | CAKI-1 > 100 µM | SK-OV-3 > 100 µM | SNB-19 > 100 µM | LOX IMVI > 100 µM | NCI-H460 > 100 µM | M14 > 100 µM | SW-620 > 100 µM | SF-295 > 100 µM | HCT-116 > 100 µM | HOP-92 > 100 µM | NCI-H522 > 100 µM | Hs-578T > 100 µM | UO-31 > 100 µM | MDA-N > 100 µM | NCI-H23 > 100 µM

Cc1cn(C2CC(/[N+]([O-])=N\Nc3ccc([N+](=O)[O-])cc3)C(CO)O2)c(=O)[nH]c1=O (stereo unspecified)
inactive: COLO 205 > 100 µM | CCRF-CEM > 100 µM | UACC-257 > 100 µM | CAKI-1 > 100 µM | SK-OV-3 > 100 µM | SNB-19 > 100 µM | LOX IMVI > 100 µM | NCI-H460 94.2 µM | M14 > 100 µM | SW-620 > 100 µM | SF-295 > 100 µM | HCT-116 > 100 µM | HOP-92 > 100 µM | NCI-H522 > 100 µM | Hs-578T > 100 µM | UO-31 > 100 µM | MDA-N > 100 µM | NCI-H23 > 100 µM

— ChEMBL document CHEMBL1201862, “PubChem BioAssay data set” (2004)
